Test results taken from patent publication US20190119282A1, “IMIDAZOPYRIDAZINES USEFUL AS INHIBITORS OF THE PAR-2 SIGNALING PATHWAY” (Vertex Pharmaceuticals Incorporated, priority 2013, published 2019).

Key:
[1] = target: T1, PAR2 (HT-29 cells, trypsin activation) (Homo sapiens, UniProt P55085); assay: Ca FLIPR TETRA assay, ANTAGONIST mode, stimulation with 3.1 U/mL trypsin; type: cell-based; conditions: HT-29 cells, stimulation with 3.1 U/mL trypsin
T1 construct: host or cells: HT-29 cells
T1 sequence (P55085 26-397): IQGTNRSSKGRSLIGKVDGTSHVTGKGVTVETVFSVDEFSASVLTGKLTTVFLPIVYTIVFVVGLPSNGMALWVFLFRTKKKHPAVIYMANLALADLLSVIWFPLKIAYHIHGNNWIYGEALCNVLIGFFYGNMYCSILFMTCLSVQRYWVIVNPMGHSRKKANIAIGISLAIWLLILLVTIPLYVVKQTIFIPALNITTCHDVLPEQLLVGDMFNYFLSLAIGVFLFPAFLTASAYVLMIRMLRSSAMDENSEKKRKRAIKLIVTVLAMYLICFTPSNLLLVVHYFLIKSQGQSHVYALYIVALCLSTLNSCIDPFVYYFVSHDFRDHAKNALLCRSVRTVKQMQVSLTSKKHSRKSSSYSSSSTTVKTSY
Procedure, shortened: (§1)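 Antagonist-mode FLIPR Tetra Ca2+ readout: after 30 min r.t. compound pre-incubation, HT-29 cells are challenged with trypsin (3.1 U/mL final), SLIGKV (8 μM), thrombin (1 U/mL) or UTP (0.6 μM). Cells were plated overnight in 1% FBS medium and dye-loaded with Calcium 5; an initial read checks compound agonism.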

[2] = tested on: UTP-stimulated Ca2+ response in HT-29 cells; assay: Ca FLIPR TETRA assay, ANTAGONIST mode, stimulation with 0.6 μM UTP; type: cell-based, human; conditions: Homo sapiens; HT-29 cells, stimulation with 0.6 μM UTP
Procedure, shortened: as §1

[3] = target: T2, PAR2 (HT-29 cells, SLIGKV activation) (Homo sapiens, UniProt P55085); assay: Ca FLIPR TETRA assay, ANTAGONIST mode, stimulation with 8 μM SLIGKV; type: cell-based; conditions: HT-29 cells, stimulation with 8 μM SLIGKV
T2 construct: host or cells: HT-29 cells
T2 sequence (P55085 26-397): T1 sequence (P55085 26-397)
Procedure, shortened: as §1

[4] = tested on: Thrombin-stimulated Ca2+ response in HT-29 cells; assay: Ca FLIPR TETRA assay, ANTAGONIST mode, stimulation with 1 U/mL Thrombin; type: cell-based, human; conditions: Homo sapiens; HT-29 cells, stimulation with 1 U/mL Thrombin
Procedure, shortened: as §1

Compound | IC50 [1] [nM] | IC50 [2] [nM] | IC50 [3] [nM] | IC50 [4] [nM]
CCCCC(O)C(=O)N1CCN(C(=O)c2cn3nc(-c4ccc(F)cc4)cc(C(C)C)c3n2)C[C@@H]1C (stereo partly drawn) [Compound I-107] | 4 | 9600 | 1 | 10000
CC(C)c1cc(-c2ccc(F)cc2)nn2cc(C(=O)N3CCN(C(=O)C(O)c4ccc(F)cc4)[C@@H](C)C3)nc12 (stereo partly drawn) [Compound I-108] | 0.7 | 16000 | 0.7 | 8300
CC(C)CC(O)C(=O)N1CCN(C(=O)c2cn3nc(-c4ccc(F)cc4)cc(C(C)C)c3n2)C[C@@H]1C (stereo partly drawn) [Compound I-109] | 4 | 10000 | 0.9 | 11000
CC(C)c1cc(-c2ccc(F)cc2)nn2cc(C(=O)N3CCN(C(=O)[C@@H](O)C(C)C)[C@@H](C)C3)nc12 [Compound I-110] | 1500 | 18000 | 110 | 19000
CC(C)c1cc(-c2ccc(F)cc2)nn2cc(C(=O)N3CCN(C(=O)[C@H](O)C(C)C)[C@@H](C)C3)nc12 [Compound I-111] | 15 | 19000 | 7 | 20000
CC(C)c1cc(-c2ccc(F)cc2)nn2cc(C(=O)N3CCN(C(=O)C(C)(C)O)[C@@H](C)C3)nc12 [Compound I-112] | 1000 | 35000 | 2400 | 38000
CC(C)c1cc(-c2ccc(F)cc2)nn2cc(C(=O)N3CCN(C(=O)C(O)Cc4ccccc4)[C@@H](C)C3)nc12 (stereo partly drawn) [Compound I-113] | 3 | 7200 | 0.8 | 8400
CC(C)c1cc(-c2ccc(F)cc2)nn2cc(C(=O)N3CCN(C(=O)[C@H](O)C4CCCCC4)[C@@H](C)C3)nc12 [Compound I-114] | 0.6 | 8700 | 0.5 | 7700
CC(C)c1cc(-c2ccc(F)cc2)nn2cc(C(=O)N3CCN(C(=O)C4(O)CC4)[C@@H](C)C3)nc12 [Compound I-115] | 160 | > 50000 | 100 | > 50000
CC(C)c1cc(-c2ccc(F)cc2)nn2cc(C(=O)N3CCN(C(=O)C(O)C(C)C)[C@@H](C)C3)nc12 (stereo partly drawn) [Compound I-116] | 72 | 22000 | 12 | 19000
CC(C)c1cc(-c2ccc(F)cc2)nn2cc(C(=O)N3CCN(C(=O)C(O)c4ccccc4)[C@@H](C)C3)nc12 (stereo partly drawn) [Compound I-117] | 0.9 | 8100 | 0.3 | 9600
CC[C@@H](O)C(=O)N1CCN(C(=O)c2cn3nc(-c4ccc(F)cc4)cc(C(C)C)c3n2)C[C@@H]1C [Compound I-118] | 1000 | 27000 | 16 | 31000
CC(O)C(=O)N1CCN(C(=O)c2cn3nc(-c4ccc(F)cc4)cc(C(C)C)c3n2)C[C@@H]1C (stereo partly drawn) [Compound I-119] | 2100 | > 50000 | 200 | > 50000
CC(C)c1cc(-c2ccc(F)cc2)nn2cc(C(=O)N3CCOCC3(C)C)nc12 [Compound I-120] | 1000 | 24000 | 130 | 20000
CC(C)c1cc(-c2ccc(F)cc2)nn2cc(C(=O)N3CCN(C(=O)CC4CCCC4)[C@@H](C)C3)nc12 [Compound I-121] | 7 | > 500 | 4 | 9200
CC(C)CC(=O)N1CCN(C(=O)c2cn3nc(-c4ccc(F)cc4)cc(C(C)C)c3n2)C[C@@H]1C [Compound I-122] | 23 | 10000 | 7 | 10000
CC(O)CC(=O)N1CCN(C(=O)c2cn3nc(-c4ccc(F)cc4)cc(C(C)C)c3n2)C[C@@H]1C (stereo partly drawn) [Compound I-123] | 340 | > 50000 | 200 | > 50000
CCCC(=O)N1CCN(C(=O)c2cn3nc(-c4ccc(F)cc4)cc(C(C)C)c3n2)C[C@@H]1C [Compound I-124] | 160 | 13000 | 26 | 15000
CC(C)c1cc(-c2ccc(F)cc2)nn2cc(C(=O)N3CCN(C(=O)Cc4ccsc4)[C@@H](C)C3)nc12 [Compound I-125] | 5 | > 500 | 2 | > 500
C#CCCC(=O)N1CCN(C(=O)c2cn3nc(-c4ccc(F)cc4)cc(C(C)C)c3n2)C[C@@H]1C [Compound I-126] | 210 | 13000 | 25 | 13000

Compound | IC50 [1] [nM] | IC50 [2] [nM] | IC50 [3] [nM] | IC50 [4] [nM]
CC(C)CCC(=O)N1CCN(C(=O)c2cn3nc(-c4ccc(F)cc4)cc(C(C)C)c3n2)C[C@@H]1C [Compound I-127] | 4 | 5400 | 2 | 6500
CC(C)c1cc(-c2ccc(F)cc2)nn2cc(C(=O)N3CCN(C(=O)CC4CCCCC4)[C@@H](C)C3)nc12 [Compound I-128] | 2 | 31000 | 2 | 30000
COCCC(=O)N1CCN(C(=O)c2cn3nc(-c4ccc(F)cc4)cc(C(C)C)c3n2)C[C@@H]1C [Compound I-129] | 500 | 37000 | 120 | 41000
CC(C)c1cc(-c2ccc(F)cc2)nn2cc(C(=O)N3CCN(C(=O)CC(C)(C)C)[C@@H](C)C3)nc12 [Compound I-130] | 6 | 5000 | 2 | 4500
CC(C)c1cc(-c2ccc(F)cc2)nn2cc(C(=O)N3CCN(C(=O)CC(C)(C)O)[C@@H](C)C3)nc12 [Compound I-131] | 650 | 32000 | 67 | 33000
COc1cccc(CC(=O)N2CCN(C(=O)c3cn4nc(-c5ccc(F)cc5)cc(C(C)C)c4n3)C[C@@H]2C)c1 [Compound I-132] | 5 | > 500 | 3 | > 500
COc1ccc(CC(=O)N2CCN(C(=O)c3cn4nc(-c5ccc(F)cc5)cc(C(C)C)c4n3)C[C@@H]2C)cc1 [Compound I-133] | 6 | > 500 | 1 | 36000
Cc1cc(C)n(CCC(=O)N2CCN(C(=O)c3cn4nc(-c5ccc(F)cc5)cc(C(C)C)c4n3)C[C@@H]2C)n1 [Compound I-134] | 280 | 7900 | 12 | 10000
CC(C)c1cc(-c2ccc(F)cc2)nn2cc(C(=O)N3CCN(C(=O)CCn4cccn4)[C@@H](C)C3)nc12 [Compound I-135] | 220 | 17000 | 22 | 16000
Cc1noc(C)c1CCC(=O)N1CCN(C(=O)c2cn3nc(-c4ccc(F)cc4)cc(C(C)C)c3n2)C[C@@H]1C [Compound I-136] | 34 | 7700 | 7 | > 5000
CC(C)c1cc(-c2ccc(F)cc2)nn2cc(C(=O)N3CCN(C(=O)CCN4CCCCC4=O)[C@@H](C)C3)nc12 [Compound I-137] | 240 | 40000 | 42 | 43000
CC(C)c1cc(-c2ccc(F)cc2)nn2cc(C(=O)N3CCN(C(=O)CCC(F)(F)F)[C@@H](C)C3)nc12 [Compound I-138] | 52 | > 5000 | 11 | > 5000
CC(C)CCCC(=O)N1CCN(C(=O)c2cn3nc(-c4ccc(F)cc4)cc(C(C)C)c3n2)C[C@@H]1C [Compound I-139] | 9 | > 500 | 2 | 25000
CC(C)c1cc(-c2ccc(F)cc2)nn2cc(C(=O)N3CCN(C(=O)CC4CC4)[C@@H](C)C3)nc12 [Compound I-140] | 250 | 14000 | 14 | 15000
CC(C)c1cc(-c2ccc(F)cc2)nn2cc(C(=O)N3CCN(C(=O)CC4CCOCC4)[C@@H](C)C3)nc12 [Compound I-141] | 130 | 24000 | 16 | 19000
CC(C)c1cc(-c2ccc(F)cc2)nn2cc(C(=O)N3CCN(C(=O)Cc4cccnc4)[C@@H](C)C3)nc12 [Compound I-142] | 280 | 24000 | 35 | 26000
CCOCCC(=O)N1CCN(C(=O)c2cn3nc(-c4ccc(F)cc4)cc(C(C)C)c3n2)C[C@@H]1C [Compound I-143] | 290 | 21000 | 41 | 22000
CC(C)c1cc(-c2ccc(F)cc2)nn2cc(C(=O)N3CCN(C(=O)CCC4CCC4)[C@@H](C)C3)nc12 [Compound I-144] | 5 | 5200 | 2 | 6600
CC(C)c1cc(-c2ccc(F)cc2)nn2cc(C(=O)N3CCN(C(=O)CC4CCOC4)[C@@H](C)C3)nc12 (stereo partly drawn) [Compound I-145] | 330 | 23000 | 72 | 24000
